Source: patent publication US12116397B2, “IL-IR-I binding polypeptide” (Swedish Orphan Biovitrum AB (publ), priority 2017, dated 2024)

How the values were obtained:
[1] = system: Normal Human Dermal Fibroblasts (NHDF) cells; experiment: Inhibition of IL-1β induced IL-6 production in NHDF cells; type: cell-based; details: 3.4 pM IL-1β
Description: The inhibitory effect of IL-1R-I binding fusion proteins on IL-1β induced IL-6 production in Normal Human Dermal Fibroblasts (NHDF) cells was monitored.
Cells were seeded three days prior to treatment with proteins. […] Harvested medium was diluted 41× before IL-6 content was analyzed using a human IL-6 ELISA kit (R&D Systems) according to manufacturer's recommendations. Data was analyzed using XLfit and IC50 values were calculated from concentration-response curves.

[2] = system: human whole blood; experiment: Inhibition of IL-1β induced IL-6 production in whole blood; type: cell-based; details: 100 pM IL-1β
Description: The inhibitory effect of IL-1R-I binding fusion proteins on IL-1β induced IL-6 production in whole blood from individual donors was measured.
Blood from healthy donors was collected 1-3 hours prior to treatment with the IL-1R-I binding fusion proteins (SEQ ID NO:1648-1649). Proteins (IL-1R-I binding fusion proteins or anakinra) were diluted to starting concentration of 500 nM in serum free RPMI (ThermoFisher Scientific, RPMI 1640 Medium, GlutaMAX™ Supplement, Cat. No.: 61870010) and subsequently serially diluted 1:3 in a ten-step dilution series resulting in a concentration range of 500 nM to 25 pM. The IL-1R-I binding fusion polypetides or anakinra were tested in presence of a challenge dose of 100 pM IL-1β. The blood was incubated for 21-23 hours with proteins, followed by harvesting of plasma. Harvested plasma was diluted 2× and IL-6 content was analyzed by using a human IL-6 kit (V-PLEX Human IL-6 Kit Human interleukin-6, MSD) according to manufacturer's recommendations.
IL-6 concentrations (pg/ml) were calculated using a standard curve (provided by the kit) and data was analyzed using XLfit and IC50 values were calculated from the concentration-response curves.

Question: How did the “IL-1β induced IL-6 release from NHDF cells” value [1] turn out when “Kineret: recombinant form of endogenous IL-1Ra denoted anakinra (Kineret)” was run?
Answer: Its value is “reduced in a concentration-dependent manner”.

Question: And the “IL-1β induced IL-6 release in human whole blood” value [2]?
Answer: The value was “reduced in a concentration-dependent manner”.
